Results: patent publication US11912693B2, “Compounds for modulating S1P1 activity and methods of using the same” (TREVENA, INC., priority 2017, dated 2024)

Experiments:
[1] = biological target: T1, human sphingosine-1-phosphate receptor 1 (S1P1) (Homo sapiens (Human), UniProt P21453); experiment: Inhibition of cAMP production (HTRF cAMP HiRange), S1P1 CHO-K1 cells; assay type: cell-based
How it was run: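 CHO-K1 cells stably co-expressing human S1P1 (C-terminal Prolink tag) and EA-β-arrestin2 were grown in AssayComplete Media 6 at 37° C. and 5% CO2, plated, and incubated overnight. Agonist-driven inhibition of intracellular cAMP was read by TR-FRET with the HTRF cAMP HiRange kit on a PheraStar reader. Potency is pEC50, and efficacy (SPAN) is normalized to fingolimod.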
Target sequence in this assay (P21453 whole entry, looked up): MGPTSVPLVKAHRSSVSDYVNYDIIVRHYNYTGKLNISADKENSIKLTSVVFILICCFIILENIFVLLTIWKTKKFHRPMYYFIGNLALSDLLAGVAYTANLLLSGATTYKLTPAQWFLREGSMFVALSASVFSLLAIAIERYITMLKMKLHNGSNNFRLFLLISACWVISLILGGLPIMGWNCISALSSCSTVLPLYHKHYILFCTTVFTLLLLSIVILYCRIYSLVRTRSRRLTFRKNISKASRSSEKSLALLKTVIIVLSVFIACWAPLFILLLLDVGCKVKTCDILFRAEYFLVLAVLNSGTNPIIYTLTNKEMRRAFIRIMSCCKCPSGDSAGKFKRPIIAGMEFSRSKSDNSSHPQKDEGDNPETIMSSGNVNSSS

[2] = biological target: T1, human sphingosine-1-phosphate receptor 1 (S1P1); experiment: β-Arrestin2 recruitment assay (PathHunter), S1P1 CHO-K1 cells; assay type: cell-based
How it was run: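 Enzyme-fragment complementation read-out: agonist-driven β-arrestin2 binding to ProLink-tagged human S1P1 in stable CHO-K1 cells restores β-galactosidase, measured 1 h at room temperature after a 60 min 37° C. compound incubation. Potency as pEC50, efficacy relative to fingolimod (SPAN).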
Target sequence in this assay (P21453 whole entry, looked up): as above
Target sequence in this assay (P32121 whole entry partner, looked up): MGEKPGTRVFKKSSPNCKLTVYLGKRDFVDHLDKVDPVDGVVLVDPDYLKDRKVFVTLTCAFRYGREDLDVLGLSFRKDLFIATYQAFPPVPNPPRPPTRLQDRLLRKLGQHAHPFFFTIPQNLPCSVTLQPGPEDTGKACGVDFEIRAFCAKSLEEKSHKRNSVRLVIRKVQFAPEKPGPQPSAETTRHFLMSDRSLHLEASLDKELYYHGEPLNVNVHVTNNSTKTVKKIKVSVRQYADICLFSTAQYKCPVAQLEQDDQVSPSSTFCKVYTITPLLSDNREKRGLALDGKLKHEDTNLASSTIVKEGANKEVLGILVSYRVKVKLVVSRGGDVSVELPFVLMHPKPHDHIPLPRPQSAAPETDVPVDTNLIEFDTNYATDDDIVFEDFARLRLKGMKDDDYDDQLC

[3] = test system: oxaliplatin induced peripheral neuropathy; experiment: Reversal of allodynia induced by oxaliplatin in mice (von Frey frequency method); assay type: in vivo, c57bl/6 mice; settings: tested 30 min after dosing
Procedure: Compounds were tested for efficacy in mouse models of chemotherapy induced peripheral neuropathy. […] For these studies […]/6 mice are habituated to the test environment and baseline measurements of pain sensitivity are assessed. To determine mechanical responses, the threshold for responses to punctate mechanical stimuli (mechanical hyperalgesia) was tested according to the frequency method. In brief, the plantar surface of the animal hindpaw was stimulated with a single von Frey monofilament (0.4 g) for approximately 1-2 seconds. If there was a withdrawal response, it was recorded as a positive response. A response was defined as a lifting or shaking of the paw upon stimulation. This was repeated ten times for each mouse. The final measurement for each mouse is the % non-response to stimulation for the ten trials. The % non-response to stimulation is converted to a % MPE. For paclitaxel induced peripheral neuropathy, a series of injections of PAC (6 mg/kg, i.p.) on days 1, 3, 5 and 7 is used to induce peripheral neuropathy. After approximately 14 days from the initiation of PAC injections, animals are re-assessed for mechanical sensitivity. […] On test day animals are dosed with compounds either subcutaneously or orally and tested for mechanical response by the frequency method either 30 min (s.c.) or 60 min (p.o.) after drug administration. Data is presented as a % MPE. For oxaliplatin induced peripheral neuropathy, a series of injections of OXA (4 mg/kg, i.p.) on days 1-5 is used to induce peripheral neuropathy. After approximately 14 days from the initiation of PAC injections, animals are re-assessed for mechanical sensitivity. […] On test day animals are dosed with compounds subcutaneously and tested for mechanical response by the frequency method 30 min after drug administration. Data is presented as a % MPE. One or more of the compounds show reversal of chemotherapeutic induced peripheral neuropathy.

[4] = test system: paclitaxel induced peripheral neuropathy; experiment: Reversal of allodynia induced by paclitaxel in mice (s.c. or p.o., von Frey frequency method); assay type: in vivo, c57bl/6 mice; settings: Mus musculus
How it was run: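 Neuropathy was induced in mice by paclitaxel (6 mg/kg i.p., days 1, 3, 5, 7) or oxaliplatin (4 mg/kg i.p., days 1-5), with re-testing about 14 days later. Compounds were given s.c. (tested at 30 min) or p.o. (tested at 60 min; paclitaxel only). A 0.4 g von Frey filament was applied ten times per paw, and % non-response was converted to % MPE.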

[5] = test system: Freund's Complete Adjuvant induced inflammation / mechanical allodynia; experiment: Tactile allodynia produced by intraplantar Freund's Complete Adjuvant in rats (Randall-Selitto); assay type: in vivo, rat; settings: CFA model, 24 hours after CFA
Procedure: Animals were acclimated to the vivarium for at least 48 hr prior to behavioral testing. Inflammation was induced with the administration of an intraplantar (subcutaneous injection into the plantar surface of the hind paw, i.pl.) injection of 0.10 ml Freund's Complete Adjuvant (FCA). The experiments were conducted 24 hours after CFA administration. Rats are tested for mechanical allodynia in a Randall-Selitto apparatus. The inflamed paw is put on a pedestal and a pointed force of increasing intensity (0 to 250 grams) is applied to the paw. When the animal struggles to withdraw from the force the test is stopped and the force to induce that struggle is recorded. Data is presented as mean grams of force to withdrawal or a percentage of the maximum possible effect.

[6] = test system: peripheral blood lymphocytes; experiment: Peripheral blood lymphocytes (lymphopenia) in c57bl/6 mice, acute and chronic studies; assay type: in vivo; settings: peripheral blood lymphocytes vs vehicle; 6 mg/kg sc, 7 days
Procedure: Compounds were tested for changes in peripheral blood lymphocytes in c57bl/6 mice. In acute studies, animals (n=5/group) were dosed subcutaneously with test compound at a dose of 3 mg/kg. Animals were sacrificed at specific time points and 500 μl of whole blood was collected in EDTA (K2) Eppendorf tubes. Blood was stored on ice and shipped immediately overnight delivery to Charles River Laboratories for analysis. CRL ran samples through their WBC/differential panel on an Advia 120 instrument. We received peripheral lymphocyte counts (10^3 cells/μl) for each blood sample. Treatment group means were compared to a vehicle treatment group for statistical significance. In chronic studies, animals (n=6-8/group) were dosed subcutaneously with test compound either in a dose response paradigm (highest dose of 3 mg/kg) or in a screening paradigm at 6 mg/kg for seven days. On the seventh day, animals were sacrificed 45 minutes after the final dose. Whole blood was collected and analyzed as described for acute studies. […]

`Cc1cnccc1-c1nc(-c2ccc3c(ccn3C(C)C)c2)no1` [Compound 142, 3-(1-isopropyl-1H-indol-5-yl)-5-(3-methylpyridin-4-yl)-1,2,4-oxadiazole] was tested, and the Emax ([1]; CHO-K1, efficacy (SPAN) normalized to fingolimod, read-out: hS1P1 cAMP SPAN) was greater than 75%, the “hS1P1 cAMP pEC50” value ([1]; inhibition of cAMP production, S1P1 CHO-K1 cells) was greater than 6.5 and the Emax ([2]; CHO-K1, efficacy (SPAN) normalized to fingolimod, read-out: hS1P1 B-arrestin2 SPAN) was greater than 75%. The “hS1P1 B-arrestin2 pEC50” value ([2]; β-arrestin2 recruitment, S1P1 CHO-K1 cells) was greater than 5, the “Screen @ 3 mg/kg sc (% MPE)” value [3] was greater than 50 % MPE and the inhibition in vivo at 3 mg/kg ([4]; po, 1 h, 3 mg/kg p.o., tested 60 min after dosing, read-out: Screen @ 3 mg/kg po (% MPE)) was greater than 50%. For the same compound, the inhibition in vivo at 1 mg/kg ([4]; sc, 0.5 h, 1 mg/kg s.c., tested 30 min after dosing, read-out: Screen @ 1 mg/kg sc (% MPE)) was greater than 50%, the “Active Doses, mg/kg sc (>50% MPE)” value [5] was no less than 0.1 mg/kg and the “Lymphopenia: Effect and Doses, mg/kg, sc” value [6] was “no change: 6 mg/kg, 7 days”.
